{"source": "patent US8993624B2", "about": "“Method of preventing and treating inflammatory diseases and disorders with abscisic acid” (Virginia Tech Intellectual Properties, Inc., priority 2010, dated 2015)", "key": {"[1]": {"system": "NF-κB", "assay": "NF-κB reporter activity assay in RAW macrophages", "details": "data not shown"}, "[2]": {"system": "LPS-stimulated bone marrow-derived macrophages", "assay": "Inflammatory mediators in LPS-stimulated bone marrow-derived macrophages", "assay_type": "cell-based, mouse", "details": "ABA 2.5 μM, 12 hours", "procedure": "Bone Marrow-derived Macrophage (BMM) Cultures—Bone marrow cells from PPAR γ flfl; MMTV-Cre− (flfl-Cre−) and flfl-Cre+ mice were cultured in DMEM with M-CSF (50 ng/ml) for 7 days. Fresh media with M-CSF was added on day 3. […] Following differentiation macrophages were directly stimulated with LPS (100 ng/ml) as previously described for 12 hours (21). ABA was added to macrophage cultures at a concentration of 2.5 μM. The effect of ABA on LPS/toll-like receptor-4 (TLR4)-mediated prostaglandin E2 (PGE2), leukotriene B4 (LTB4) and monocyte chemoattractant protein-1 (MCP-1) production by macrophages was examined in cell supernatants 12 hours following the LPS challenge by using a commercial PGE2 EIA kit (Cayman Chemicals), a LTB4 competitive binding assay (R&D Systems) and a MCP-1 ELISA (R&D Systems), respectively, per the manufacturer's instructions."}, "[3]": {"system": "NFATc1", "assay": "NFATc1 activity in spleens of LPS-challenged mice", "assay_type": "in vivo, mouse", "details": "spleen", "procedure": "NF-κB and NFAT activities—Spleens were diced into smaller pieces in lysis buffer containing dithiothreitol and a protease inhibitor cocktail and then further disrupted using a dounce ground glass homogenizer at 4° C. Nuclear extraction for tissue homogenate and BMM was performed using the Nuclear Extract kit (Active Motif, Carlsbad, Calif.) per the manufacturer's instructions. The extracts were used to perform a Bradford-based assay for quantifying the protein concentrations and stored at −80° C. NF-κB and NFATc1 activities were measured as previously described (13) by using the Trans-AM™ NF-κB p65 and the Trans-AM™ NFATc1 ELISA-based assays (Active Motif), respectively per the manufacturer's instructions."}, "[4]": {"system": "CD3/CD28-stimulated splenocytes", "assay": "Intracellular cAMP and mRNA in CD3/CD28-stimulated splenocytes", "assay_type": "cell-based, mouse", "procedure": "Intracellular cAMP in CD3/CD28-stimulated splenocytes and LPS-stimulated macrophages—Spleens were excised from C57BL6/J mice under sterile conditions. Cells were released by disrupting the tissue between frosted glass slides and red blood cells were lysed with erythrocyte lysis buffer. Splenocytes were enumerated with a Coulter Counter (Beckman Coulter, Fullerton, Calif.) and seeded in cRPMI at 1×10^6/ml onto 24-well plates pre-coated with anti-mouse CD3 (5 μg/mL; BD Pharmingen) and anti-mouse CD28 (1 μg/mL; BD Pharmingen). […] For intracellular assessment of cAMP, cells were harvested into 0.1 M HCl and the lysates were collected. The cAMP concentration of the lysates was determined using an EIA kit (Assay Designs, Ann Arbor, Mich.)."}, "[5]": {"system": "RXR", "assay": "RXR reporter activity (data not shown)", "assay_type": "cell-based"}, "[6]": {"biological_target": "T1, ligand-binding domain of PPAR γ (Homo sapiens, UniProt P37231)", "T1 construct": "purchased Invitrogen", "T1 sequence (P37231 238-503 limits assumed)": "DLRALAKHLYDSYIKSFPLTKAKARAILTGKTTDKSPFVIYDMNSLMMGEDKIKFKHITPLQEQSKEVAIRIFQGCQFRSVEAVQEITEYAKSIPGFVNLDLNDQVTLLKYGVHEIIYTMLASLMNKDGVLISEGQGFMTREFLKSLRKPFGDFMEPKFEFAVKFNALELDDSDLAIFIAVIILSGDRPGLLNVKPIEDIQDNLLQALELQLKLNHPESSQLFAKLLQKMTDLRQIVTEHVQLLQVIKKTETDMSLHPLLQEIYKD", "assay": "PPAR γ ligand-binding assay (Polarscreen PPAR Competitor Assay, Green)", "details": "0.001-10 μM, 4 hours", "experimental": "After 4 hours the ability of each compound to displace the fluorescent ligand, and therefore reduce the polarization values, was assessed using a fluorescent plate reader with 485 nm excitation and 535 nm emission. Results are a compilation of 4 independent experiments."}, "[7]": {"system": "A/California/09 (H1N1)", "assay": "Post-exposure ABA by gavage, A/California/09 (H1N1) challenge in mice", "assay_type": "in vivo, mouse"}, "[8]": {"biological_target": "T2, PPAR γ (Mus musculus, UniProt P37238)", "T2 construct": "host or cells: 3T3-L1 preadipocytes", "T2 sequence (P37238 1-505)": "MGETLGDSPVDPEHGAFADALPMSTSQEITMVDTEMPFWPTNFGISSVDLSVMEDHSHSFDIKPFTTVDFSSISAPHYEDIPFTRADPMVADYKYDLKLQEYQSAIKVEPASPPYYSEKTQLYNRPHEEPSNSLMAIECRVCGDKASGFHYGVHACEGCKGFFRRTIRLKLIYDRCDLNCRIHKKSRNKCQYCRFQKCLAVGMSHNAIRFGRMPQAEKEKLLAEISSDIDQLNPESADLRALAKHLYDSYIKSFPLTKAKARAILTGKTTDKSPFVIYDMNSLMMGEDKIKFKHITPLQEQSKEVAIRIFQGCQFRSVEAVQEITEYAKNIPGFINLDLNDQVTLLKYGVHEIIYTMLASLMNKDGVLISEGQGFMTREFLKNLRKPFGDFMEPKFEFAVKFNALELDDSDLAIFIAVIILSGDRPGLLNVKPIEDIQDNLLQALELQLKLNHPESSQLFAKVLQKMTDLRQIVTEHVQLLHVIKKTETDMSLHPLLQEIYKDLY", "details": "racemic mixture, 3T3-L1 preadipocytes; cited from earlier work"}}}
{"smiles": "CC1=CC(=O)CC(C)(C)C1(O)/C=C/C(C)=C\\C(=O)O", "note": "(racemic) [ABA, abscisic acid]", "values": [{"measurement": "NF-κB reporter activity", "setting": "[1]", "value": "increased"}, {"measurement": "PGE2 secretion", "setting": "[2]; EIA", "value": "significantly suppressed"}, {"measurement": "MCP-1 secretion", "setting": "[2]; ELISA", "value": "significantly suppressed"}, {"measurement": "LPS-mediated activation of NFATc1", "setting": "[3]", "value": "significantly decreased"}, {"measurement": "LANCL2 mRNA expression", "setting": "[4]", "value": "not LANCL2 mRNA expression"}, {"measurement": "PPAR γ expression", "setting": "[4]", "value": "upregulation of PPAR γ"}, {"measurement": "intracellular cAMP", "setting": "[4]; ABA 10 μM", "value": "significantly increased intracellular cAMP"}, {"measurement": "phosphodiesterase activity", "setting": "[4]; data not shown", "value": "without affecting phosphodiesterase activity"}, {"measurement": "RXR reporter activity", "setting": "[5]", "value": "does not increase"}, {"measurement": "ability to compete with the tracer for binding to the PPAR γ LBD", "setting": "[6]", "value": "not a PPAR γ ligand"}, {"measurement": "weight loss and recovery", "setting": "[7]; 100 mg/kg oral gavage once daily 10 days, from 4 hours post-infection", "value": "suppressed weight loss for both strains and accelerated recovery"}, {"measurement": "glucose tolerance", "setting": "[7]; lean and obese mice infected with H1N1", "value": "ameliorated glucose tolerance"}, {"measurement": "glucose tolerance", "setting": "[7]; uninfected control mice", "value": "ameliorated glucose tolerance"}, {"measurement": "MCP-1 expression in white adipose tissue", "setting": "[7]; uninfected mice", "value": "down-regulated MCP-1 expression"}, {"measurement": "PPAR γ activation", "setting": "[8]", "value": "activates PPAR γ"}]}
